The record followed here is ChEMBL document CHEMBL5154787 (J Med Chem, 2022).

One series has as its system Rattus norvegicus. Nature of the series: Analgesic activity in CCI induced tactile allodynia in Sprague-Dawley rat assessed as reduction in pain response at 3 mg/kg, po by Hargreaves test relative to control. It counts as functional. Also on record: scale not given: the % may be the effect or the level left.
The nature of series [1]: Plasma concentration in STZ-induced diabetic peripheral neuropathic mechanical allodynia in overnight fasted Sprague-Dawley rat at 1 mg/kg, po measured at 5.75 hrs post dose. It counts as ADME, organism-based.
Series [2] in a line: Drug concentration in STZ-induced diabetic peripheral neuropathic mechanical allodynia in overnight fasted Sprague-Dawley rat spinal cord at 1 mg/kg, po measured at 5.75 hrs post dose. The settings on record: read-out: Ct. It counts as ADME, organism-based.
Another series has as its target T1, Cytochrome P450 1A2 (Homo sapiens, UniProt P05177).
T1 sequence (P05177 whole entry): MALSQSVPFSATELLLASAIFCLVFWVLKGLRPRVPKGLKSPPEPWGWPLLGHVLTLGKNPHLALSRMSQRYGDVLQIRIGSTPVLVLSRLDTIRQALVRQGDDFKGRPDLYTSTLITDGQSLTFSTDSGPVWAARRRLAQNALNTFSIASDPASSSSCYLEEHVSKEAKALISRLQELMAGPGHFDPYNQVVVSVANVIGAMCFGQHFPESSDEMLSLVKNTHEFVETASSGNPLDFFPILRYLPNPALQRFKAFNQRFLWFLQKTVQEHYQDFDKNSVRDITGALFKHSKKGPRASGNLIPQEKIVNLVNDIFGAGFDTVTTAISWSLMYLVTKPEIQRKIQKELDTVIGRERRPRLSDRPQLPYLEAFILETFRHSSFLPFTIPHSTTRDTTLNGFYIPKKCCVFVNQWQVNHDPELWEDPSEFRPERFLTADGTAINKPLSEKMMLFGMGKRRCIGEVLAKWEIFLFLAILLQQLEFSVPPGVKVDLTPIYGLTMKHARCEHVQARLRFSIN
Put plainly: Inhibition of CYP1A2 (unknown origin) incubated for 10 mins in presence of NADPH by LC-MS/MS analysis. It counts as ADME.

Series [3] in a line: Inhibition of sodium channel voltage-sensing domain (unknown origin). The arrangement: species or system Homo sapiens.
Series [4] can be described thus: Efflux ratio of permeability in human Caco-2 cells. It counts as ADME, cell-based. On the technique in general: Caco-2 monolayers are a common model of the intestinal barrier.
In the next series the target is T2, Cytochrome P450 2B6 (Homo sapiens, UniProt P20813).
T2 sequence (P20813 whole entry): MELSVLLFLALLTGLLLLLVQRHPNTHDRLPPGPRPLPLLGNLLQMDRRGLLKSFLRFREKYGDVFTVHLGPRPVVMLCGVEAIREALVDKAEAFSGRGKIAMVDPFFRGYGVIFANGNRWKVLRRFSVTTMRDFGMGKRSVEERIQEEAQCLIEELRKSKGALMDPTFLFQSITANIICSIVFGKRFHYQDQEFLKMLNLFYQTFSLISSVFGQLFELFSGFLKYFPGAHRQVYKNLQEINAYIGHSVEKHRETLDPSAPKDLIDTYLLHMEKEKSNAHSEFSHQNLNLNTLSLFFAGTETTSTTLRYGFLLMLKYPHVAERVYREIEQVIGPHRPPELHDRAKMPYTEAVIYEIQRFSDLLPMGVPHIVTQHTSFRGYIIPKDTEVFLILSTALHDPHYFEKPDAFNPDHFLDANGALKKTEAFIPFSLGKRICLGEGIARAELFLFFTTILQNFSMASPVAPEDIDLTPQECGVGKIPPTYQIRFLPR
Put plainly: Inhibition of CYP2B6 (unknown origin) incubated for 10 mins in presence of NADPH by LC-MS/MS analysis. Format: ADME.

Series [5] has as its target Voltage-gated inwardly rectifying potassium channel KCNH2 (Homo sapiens, UniProt Q12809). Nature of the series: Inhibition of human ERG by patch clamp assay. Format: toxicity. (In general: The patch-clamp technique gives a direct electrical read-out from membranes.)
Series [6] can be described thus: Protein binding in human plasma assessed as unbound fraction measured after 3 hrs by LC/MS/MS analysis. It counts as ADME, cell-free.
Series [7] can be described thus: Inhibition of calcium channel (unknown origin). Also on record: species or system Homo sapiens.
Series [8] can be described thus: Ratio of drug concentration in spinal cord to plasma in CCI induced tactile allodynia in Sprague-Dawley rat at 3 mg/kg, po measured at 7.5 hrs post dose. Format: ADME, organism-based.
Series [9] addresses AP2-associated protein kinase 1 (Mus musculus, UniProt Q3UHJ0). Put plainly: Displacement of 3H-LP-927443 from AAK1 in C57BL6 mouse brain homogenate assessed as inhibition constant incubated for 1 hr by liquid scintillation counter analysis. It counts as tissue-based. A general note: In a radioligand displacement assay an active substance lowers the binding of a labelled ligand.

Series [10] is described as follows: Genotoxicity in Salmonella typhimurium by Ames test. Format: toxicity. The following applies: salmonella enterica subsp. enterica serovar typhimurium.
A short description of series [11]: Ratio of drug concentration in spinal cord to plasma in STZ-induced diabetic peripheral neuropathic mechanical allodynia in overnight fasted Sprague-Dawley rat at 1 mg/kg, po measured at 5.75 hrs post dose. It counts as ADME, organism-based.
In series [12] the target is MAP kinase-interacting serine/threonine-protein kinase 1 (Homo sapiens, UniProt Q9BUB5). Nature of the series: Inhibition of MNK1 (unknown origin).
A short description of series [13]: Drug concentration in CCI induced tactile allodynia in Sprague-Dawley rat spinal cord at 3 mg/kg, po measured at 7.5 hrs post dose. Format: ADME, organism-based. The following applies: read-out: Ct.
For a further series, the target named is Cytochrome P450 2D6 (Homo sapiens, UniProt P10635). Put plainly: Inhibition of CYP2D6 (unknown origin) incubated for 10 mins in presence of NADPH by LC-MS/MS analysis. It counts as ADME.
Series [14] can be described thus: Oral bioavailability in rat at 3 mg/kg or 2 mg/kg,iv. Format: ADME, organism-based. The settings on record: in vivo.
Series [15] can be described thus: Metabolic stability in dog microsomes assessed as half life incubated at 0.5 uM for 10 mins in presence of NADPH by LC-MS/MS analysis. Format: ADME, Canis lupus familiaris, Liver, Microsome.
In series [16] the target is Myosin light chain kinase 2, skeletal/cardiac muscle (Homo sapiens, UniProt Q9H1R3). Put plainly: Inhibition of MYLK2 (unknown origin).
Series [17] in a line: Plasma concentration in CCI induced tactile allodynia in Sprague-Dawley rat at 3 mg/kg, po measured at 7.5 hrs post dose. It counts as ADME, organism-based.
A short description of series [18]: Protein binding in mouse plasma assessed as unbound fraction measured after 3 hrs by LC/MS/MS analysis. It counts as ADME, cell-free.
The target of series [19] is T3, Cytochrome P450 3A4 (Homo sapiens, UniProt P08684). Put plainly: Time dependent inhibition of […] (unknown origin) using BFC as substrate incubated for 5 mins in presence of NADPH by LC-MS/MS analysis. It counts as ADME.
Series [20] concerns the target T3, Cytochrome P450 3A4. Nature of the series: Time dependent inhibition of […] (unknown origin) using TST as substrate incubated for up to 30 mins in presence of NADPH by LC-MS/MS analysis. Format: ADME.
Series [21] deals with T3, Cytochrome P450 3A4. Put plainly: Time dependent inhibition of […] (unknown origin) using BFC as substrate incubated for 30 mins in presence of NADPH by LC-MS/MS analysis. Format: ADME.
Series [22] deals with Sodium-dependent noradrenaline transporter (Homo sapiens, UniProt P23975). Put plainly: Inhibition of NET (unknown origin). It counts as toxicity.
The target in series [23] is T3, Cytochrome P450 3A4. Put plainly: Time dependent inhibition of […] (unknown origin) using MDZ as substrate incubated for up to 30 mins in presence of NADPH by LC-MS/MS analysis. Format: ADME.
Series [24] addresses Neuronal acetylcholine receptor subunit alpha-7 (Homo sapiens, UniProt P36544). Nature of the series: Inhibition of nicotinic acetylcholine receptor alpha 7 (unknown origin). Format: toxicity.
Series [25] can be described thus: Protein binding in mouse brain assessed as unbound fraction at 1 uM measured after 4 hrs by LC/MS/MS analysis. It counts as ADME, tissue-based.

Structures are written as SMILES.

Cytochrome P450 2D6, sequence (P10635 whole entry): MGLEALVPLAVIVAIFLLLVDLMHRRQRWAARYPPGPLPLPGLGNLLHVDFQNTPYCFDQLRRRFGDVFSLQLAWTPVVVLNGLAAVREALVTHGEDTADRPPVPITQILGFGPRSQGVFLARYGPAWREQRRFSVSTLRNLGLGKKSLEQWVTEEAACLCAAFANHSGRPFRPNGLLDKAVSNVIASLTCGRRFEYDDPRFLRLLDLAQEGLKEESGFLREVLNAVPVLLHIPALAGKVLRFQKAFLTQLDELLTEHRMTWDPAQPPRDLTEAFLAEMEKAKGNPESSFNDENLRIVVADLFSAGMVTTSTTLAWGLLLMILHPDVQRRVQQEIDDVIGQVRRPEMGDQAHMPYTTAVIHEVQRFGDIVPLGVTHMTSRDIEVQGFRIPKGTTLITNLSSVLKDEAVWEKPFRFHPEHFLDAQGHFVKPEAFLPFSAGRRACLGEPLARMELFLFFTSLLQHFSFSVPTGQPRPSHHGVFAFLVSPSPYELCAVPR
T3 sequence (P08684 whole entry): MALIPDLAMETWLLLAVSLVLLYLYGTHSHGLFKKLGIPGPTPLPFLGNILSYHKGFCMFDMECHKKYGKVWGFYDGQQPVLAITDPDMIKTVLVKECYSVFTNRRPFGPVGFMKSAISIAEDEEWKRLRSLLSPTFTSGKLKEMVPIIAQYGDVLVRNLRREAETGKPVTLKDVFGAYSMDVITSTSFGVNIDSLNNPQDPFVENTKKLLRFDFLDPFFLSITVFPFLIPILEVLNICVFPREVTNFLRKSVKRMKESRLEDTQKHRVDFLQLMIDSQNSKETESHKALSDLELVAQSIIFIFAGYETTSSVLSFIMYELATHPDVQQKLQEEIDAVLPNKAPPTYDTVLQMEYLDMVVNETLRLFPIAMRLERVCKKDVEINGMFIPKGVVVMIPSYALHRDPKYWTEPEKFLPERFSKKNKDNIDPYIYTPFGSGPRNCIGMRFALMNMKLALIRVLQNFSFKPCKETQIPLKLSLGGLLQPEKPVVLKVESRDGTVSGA
AP2-associated protein kinase 1, sequence (Q3UHJ0 whole entry): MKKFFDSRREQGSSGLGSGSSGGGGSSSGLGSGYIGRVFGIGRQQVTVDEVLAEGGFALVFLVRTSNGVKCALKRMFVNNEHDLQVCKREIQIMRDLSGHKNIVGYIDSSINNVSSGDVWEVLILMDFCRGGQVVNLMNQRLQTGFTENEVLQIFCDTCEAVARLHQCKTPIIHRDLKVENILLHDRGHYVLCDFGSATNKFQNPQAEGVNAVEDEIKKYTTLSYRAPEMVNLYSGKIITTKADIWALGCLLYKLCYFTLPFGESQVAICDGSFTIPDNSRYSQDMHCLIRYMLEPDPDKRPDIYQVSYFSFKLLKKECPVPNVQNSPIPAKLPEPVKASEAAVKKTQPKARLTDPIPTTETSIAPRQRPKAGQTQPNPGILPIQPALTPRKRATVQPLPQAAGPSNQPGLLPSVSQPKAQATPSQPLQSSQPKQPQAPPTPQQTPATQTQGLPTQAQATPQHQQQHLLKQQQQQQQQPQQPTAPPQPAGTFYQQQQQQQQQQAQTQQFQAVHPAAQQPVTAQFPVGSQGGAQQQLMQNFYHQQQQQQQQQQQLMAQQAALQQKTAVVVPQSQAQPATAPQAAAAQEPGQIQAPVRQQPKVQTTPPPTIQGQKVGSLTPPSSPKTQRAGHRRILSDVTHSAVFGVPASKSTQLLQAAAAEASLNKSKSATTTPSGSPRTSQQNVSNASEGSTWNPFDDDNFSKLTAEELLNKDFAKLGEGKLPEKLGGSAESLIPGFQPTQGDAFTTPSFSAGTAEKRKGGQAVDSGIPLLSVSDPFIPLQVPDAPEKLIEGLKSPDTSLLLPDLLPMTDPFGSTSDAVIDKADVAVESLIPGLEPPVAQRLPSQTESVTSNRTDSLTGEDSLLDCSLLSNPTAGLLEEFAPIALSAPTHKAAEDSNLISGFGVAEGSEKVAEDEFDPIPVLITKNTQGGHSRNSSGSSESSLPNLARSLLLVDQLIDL
Sodium-dependent noradrenaline transporter, sequence (P23975 whole entry): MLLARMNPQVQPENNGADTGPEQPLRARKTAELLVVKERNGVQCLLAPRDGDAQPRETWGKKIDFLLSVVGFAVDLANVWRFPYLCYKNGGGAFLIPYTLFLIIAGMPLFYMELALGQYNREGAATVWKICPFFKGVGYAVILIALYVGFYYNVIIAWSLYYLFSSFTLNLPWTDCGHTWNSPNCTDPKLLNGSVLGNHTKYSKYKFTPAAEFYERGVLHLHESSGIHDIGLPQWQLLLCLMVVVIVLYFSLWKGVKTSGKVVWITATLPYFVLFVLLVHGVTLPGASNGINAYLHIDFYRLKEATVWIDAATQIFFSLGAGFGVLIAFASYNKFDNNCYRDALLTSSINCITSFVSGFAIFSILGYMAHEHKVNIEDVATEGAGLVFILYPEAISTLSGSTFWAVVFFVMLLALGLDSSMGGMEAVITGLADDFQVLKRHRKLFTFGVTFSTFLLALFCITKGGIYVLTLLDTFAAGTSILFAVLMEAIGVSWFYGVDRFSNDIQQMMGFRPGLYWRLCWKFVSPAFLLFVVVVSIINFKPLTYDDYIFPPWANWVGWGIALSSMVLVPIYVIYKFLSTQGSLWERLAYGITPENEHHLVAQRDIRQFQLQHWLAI
Neuronal acetylcholine receptor subunit alpha-7, sequence (P36544 whole entry): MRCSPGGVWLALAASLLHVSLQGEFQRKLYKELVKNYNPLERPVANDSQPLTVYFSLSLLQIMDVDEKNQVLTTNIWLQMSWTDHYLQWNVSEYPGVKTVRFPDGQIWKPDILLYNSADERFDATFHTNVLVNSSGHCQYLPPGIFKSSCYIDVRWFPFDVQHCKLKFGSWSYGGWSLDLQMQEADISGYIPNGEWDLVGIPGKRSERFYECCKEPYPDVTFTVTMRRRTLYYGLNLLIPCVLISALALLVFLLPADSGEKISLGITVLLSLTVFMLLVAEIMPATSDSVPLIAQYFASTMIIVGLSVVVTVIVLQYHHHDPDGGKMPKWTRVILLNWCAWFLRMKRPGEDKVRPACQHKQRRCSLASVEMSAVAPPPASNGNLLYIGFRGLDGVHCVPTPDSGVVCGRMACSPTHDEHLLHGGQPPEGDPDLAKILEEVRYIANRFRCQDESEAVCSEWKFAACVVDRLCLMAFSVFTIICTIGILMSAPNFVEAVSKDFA
Myosin light chain kinase 2, skeletal/cardiac muscle, sequence (Q9H1R3 whole entry): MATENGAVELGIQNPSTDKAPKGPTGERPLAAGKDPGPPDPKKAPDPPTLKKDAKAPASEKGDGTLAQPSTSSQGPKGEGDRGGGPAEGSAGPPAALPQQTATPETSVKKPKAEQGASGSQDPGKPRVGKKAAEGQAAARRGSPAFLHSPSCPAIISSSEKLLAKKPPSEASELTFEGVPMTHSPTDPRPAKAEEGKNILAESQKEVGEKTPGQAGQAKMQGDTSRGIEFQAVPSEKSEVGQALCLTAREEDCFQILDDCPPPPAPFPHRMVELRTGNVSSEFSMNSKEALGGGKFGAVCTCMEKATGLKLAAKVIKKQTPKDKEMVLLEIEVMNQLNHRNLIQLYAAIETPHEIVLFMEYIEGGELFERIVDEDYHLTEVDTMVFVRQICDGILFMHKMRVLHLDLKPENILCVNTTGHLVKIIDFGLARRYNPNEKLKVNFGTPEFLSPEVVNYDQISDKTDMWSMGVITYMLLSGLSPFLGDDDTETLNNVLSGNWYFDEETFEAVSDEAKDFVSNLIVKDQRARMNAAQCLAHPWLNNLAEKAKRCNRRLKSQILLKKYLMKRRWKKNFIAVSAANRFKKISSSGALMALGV
MAP kinase-interacting serine/threonine-protein kinase 1, sequence (Q9BUB5 whole entry): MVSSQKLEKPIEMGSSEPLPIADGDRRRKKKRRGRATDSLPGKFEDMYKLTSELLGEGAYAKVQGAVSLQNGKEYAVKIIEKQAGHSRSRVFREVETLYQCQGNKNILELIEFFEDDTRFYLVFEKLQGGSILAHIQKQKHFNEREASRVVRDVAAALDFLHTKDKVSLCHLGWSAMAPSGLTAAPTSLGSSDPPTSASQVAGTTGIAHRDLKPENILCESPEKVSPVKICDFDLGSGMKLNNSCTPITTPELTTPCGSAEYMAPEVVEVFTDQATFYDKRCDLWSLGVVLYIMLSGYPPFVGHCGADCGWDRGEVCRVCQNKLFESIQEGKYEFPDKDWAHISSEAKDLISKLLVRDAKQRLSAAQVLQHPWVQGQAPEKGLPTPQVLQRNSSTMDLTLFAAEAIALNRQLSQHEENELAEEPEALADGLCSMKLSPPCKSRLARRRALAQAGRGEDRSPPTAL

The term IC50 denotes the concentration that gives 50% inhibition. In general, efflux ratio refers to the permeability from basolateral to apical divided by that in the opposite direction, in the common usage. As a reminder, the fraction unbound is the share of the substance not bound to proteins or other matrix. Broadly, the Kp is the ratio of the level in a tissue or fluid to that in plasma or blood. As usually defined, the Ki is the equilibrium dissociation constant of an inhibitor or competing ligand from its target. For orientation: bioavailability means dose-corrected exposure relative to a reference, in per cent. By half-life is commonly meant the time in which the quantity being followed falls by half. In the case of `COC(=O)Nc1cc(-c2ccc(OC[C@@](C)(N)CC(C)C)c(C)n2)ccn1`, the Activity is 80% with Rattus norvegicus and “Non-Toxic” in series [10]. In addition, the concentration at 5.75 h in [1] was found to be 80 nM; in [2], 213 nM. Further, the IC50 is greater than 20 µM at Cytochrome P450 1A2; 39 µM in series [3]; greater than 20 µM on Cytochrome P450 2B6; 5.9 µM in [5]; 16 µM in series [7]; 0.19 µM in series [12]. For the same compound, the concentration for half-maximal inhibition (IC50) on Cytochrome P450 2D6 is greater than 20 µM; in series [16], 1.8 µM. In [4], the efflux ratio was determined as 1.1. The fraction unbound at 3 h in series [6] was 0.18. The Kp at 7.5 h in [8] worked out at 8.8. Also, the Ki in [9] was determined as 0.29 nM. In series [11], the Kp at 5.75 h amounted to 2.7. Further, the concentration at 7.5 h in series [13] turned out to be 4400 nM; in series [17], 500 nM. The compound further gave a bioavailability in [14] of 94%. The half-life at 0.5 µM in [15] came to 1.68 h.

As to `COC(=O)Nc1cc(-c2cnc(OC[C@@](C)(N)CC(C)C)c(C)c2)ccn1`, the Activity in the series on Rattus norvegicus amounted to 60%. The IC50 at Cytochrome P450 1A2 is greater than 20 µM; in [3], 11.5 µM; at Cytochrome P450 2B6, greater than 20 µM; in series [7] it was 35.3 µM; on Cytochrome P450 3A4 [19] it was greater than 20 µM; at Cytochrome P450 3A4 [20] it was greater than 40 µM. Further, the concentration for half-maximal inhibition (IC50) on Cytochrome P450 3A4 [21] was greater than 20 µM; in series [22] it was 5 µM; on Cytochrome P450 2D6, greater than 20 µM; at Cytochrome P450 3A4 [23] it was greater than 40 µM; in series [24] it was 4.5 µM. Also, in series [4], the efflux ratio came to 1. In addition, the fraction unbound at 3 h in series [6] was determined as 0.115; in series [18], 0.049. For the same compound, the Kp at 7.5 h in series [8] is 5.1. The Ki in series [9] came to 0.21 nM. Also, the values for the concentration at 7.5 h in [13] and in series [17] were 720 nM and 140 nM, respectively. The bioavailability in series [14] is 77%. Besides, the half-life at 0.5 µM in series [15] was greater than 2 h.

As to `CC(C)C[C@](C)(N)COc1cnc(-c2ccnc(C(F)F)c2)cc1C(F)F`, the concentration at 5.75 h in [1] turned out to be 80 nM; in series [2] it was 213 nM. The IC50 at Cytochrome P450 1A2 is greater than 20 µM; in series [3] it was 7.4 µM; on Cytochrome P450 2B6, greater than 20 µM; in series [5], 1.3 µM; in [7], 18.8 µM; on Cytochrome P450 3A4 [19] it was greater than 20 µM. Besides, the IC50 at Cytochrome P450 3A4 [20] is greater than 40 µM; at Cytochrome P450 3A4 [21], greater than 20 µM; in [22], 1.8 µM; in series [12], 0.26 µM; on Cytochrome P450 2D6 it was greater than 20 µM; in [16], 0.45 µM. Also, the IC50 at Cytochrome P450 3A4 [23] is greater than 40 µM; in series [24], 4 µM. Also, in [4], the efflux ratio stood at 0.7. Further, the fraction unbound at 3 h in series [6] is 0.125; in series [18] it was 0.065. The fraction unbound at 4 h, 1 µM in series [25] was 0.018. Besides, in series [9], the Ki was determined as 0.05 nM. Further, the Activity entry in series [10] is recorded as “Non-Toxic”. Besides, the Kp at 5.75 h in series [11] was 2.7. The compound also gave a bioavailability in series [14] of 22%. Moreover, in series [15], the half-life at 0.5 µM turned out to be 0.433 h.
